Measured values published in patent US20150209366A1, “COMBINATION OF A MACROCYCLIC PROTEASE INHIBITOR OF HCV, A NON-NUCLEOSIDE HCV INHIBITOR AND RITONAVIR” (Janssen Pharmaceuticals, Inc., priority 2012, published 2015).

What was measured:
[1] = Pharmacokinetics of compound (I), alone versus in combination with (III) and ritonavir, healthy subjects; type: in vivo, human; details: geometric mean; for Cmax / AUC(0-t): human, in vivo; for AUC(0-t): read-out: AUC24 h
Experimental: The pharmacokinetic variables for the compound of formula (I) and (III) administered alone where compared when they were co-administered in a combination of (I), (II) and (III). All tables indicate Geometric mean (CV %) pharmacokinetic parameters and might be the result of multiple studies. The compounds are indicated by their respective numbers (I, II or III) in the tables below. A comparison is made between administration of compound of Formula (I) 150 mg alone versus 300 mg compound of formula (III) in combination with 50 mg of compound of Formula (I) and 20 mg of Ritonavir (compound of Formula (II) according to the following protocol. • 150 mg qd (I) given for 14 days to 10 healthy subjects • Washout of 14 days • 50 mg qd (I), 300 mg qd (III), 20 mg qd ritonavir (II) given for 14 days to the same 10 healthy volunteers.

[2] = Pharmacokinetics of compound (III), alone versus in combination with (I) and ritonavir; type: in vivo, human; details: geometric mean (CV%); for Cmax / AUC(0-t): human, in vivo; for AUC(0-t): read-out: AUC24 h
Experimental: The pharmacokinetic variables for the compound of formula (I) and (III) administered alone where compared when they were co-administered in a combination of (I), (II) and (III). All tables indicate Geometric mean (CV %) pharmacokinetic parameters and might be the result of multiple studies. The compounds are indicated by their respective numbers (I, II or III) in the tables below. A comparison is made between an administration of compound of Formula (III) 1000 mg alone, versus 300 mg compound of formula (III) in combination with 50 mg of compound of Formula (I) and 20 mg of Ritonavir (compound of Formula (II). The results are indicated in table 2 below.

[3] = 50 mg (I) + 300 mg (III) + 20 mg RTV qd for 14 days, same 10 healthy volunteers
[4] = (I) alone, 150 mg qd for 14 days, 10 healthy subjects
[5] = 300 mg (III) + 50 mg (I) + 20 mg (II) qd

Cmin [1, 3] | Cmin [1, 4] | Cmax [1, 3] | AUC(0-t) [1, 3] | Cmax [1, 4] | AUC(0-t) [1, 4] | Cmin [2, 5] | Cmin ([2]; (III) alone, 1000 mg bid) | Cmax [2, 5] | AUC(0-t) [2, 5] | Cmax ([2]; (III) alone, 1000 mg bid) | AUC(0-t) ([2]; (III) alone, 1000 mg bid) | SMILES
375 ng/mL | 1405 ng/mL | 1460 ng/mL | 20000 ng·h/mL | 4750 ng/mL | 71200 ng·h/mL |  |  |  |  |  |  | COc1ccc2c(O[C@@H]3C[C@H]4C(=O)N[C@]5(C(=O)NS(=O)(=O)C6CC6)C[C@H]5/C=C\CCCCN(C)C(=O)[C@@H]4C3)cc(-c3nc(C(C)C)cs3)nc2c1C [I, (1R,4R,6S,15R,17R)-cis-N-[17-[2-(4-isopropylthiazole-2-yl)-7-methoxy-8-methylquinolin-4-yloxy]-13-methyl-2,14-dioxo-3,13-diazatricyclo[13.3.0.0^4,6]octadec-7-ene-4-carbonyl]-(cyclopropyl)sulfonamide]
 |  |  |  |  |  | 0.21 (86%) μg/ml | 0.16 (42%) μg/ml | 6570 ng/mL | 52200 ng·h/mL | 5220 ng/mL | 40100 ng·h/mL | COc1ccc2c(c1)C=C1Cn3c-2c(C2CCCCC2)c2ccc(cc23)C(=O)NS(=O)(=O)N(C)CCOCCN(C)C1=O [III]
